Data taken from patent US20220289782A1, “A Compound with High Anticoagulant Activity and Its Preparation Method and Application” (SUZHOU WISMED PHARMACEUTICALS CO LTD, priority 2019, published 2022).

Tests used:
factor Xa = test: Determination of anticoagulant factor Xa activity (substrate developing method as for low molecular heparin); type: biochemical
Experimental: (§1) The pentose (API) in Example 10 is subjected to a biological test: anticoagulant factor Xa activity and half-life (Ti/2), as shown in Table 1. Determination of anticoagulant factor Xa activity: Refer to substrate developing method for determination of anticoagulant factor Xa of low molecular heparin. Measurement of half-life: inject this anticoagulant pentose (dosage 1 mg/Kg) in male Wistar rats intravenously for pharmacokinetic study, calculate the concentration of this compound in blood by measuring the anticoagulant factor Xa in plasma, and calculate the half-life (T1/2) by the concentration-time curve.

[1] = Half-life after intravenous injection in male Wistar rats, concentration from plasma anti-factor Xa; type: in vivo; conditions: 1 mg/Kg, T1/2 from concentration-time curve
Experimental: as §1

Structure (SMILES): CO[C@H]1O[C@H](COS(=O)(=O)O)[C@@H](O[C@@H]2O[C@@H](C(=O)O)[C@@H](O[C@H]3O[C@H](COS(=O)(=O)O)[C@@H](O[C@@H]4O[C@H](C(=O)O)[C@@H](O[C@H]5O[C@H](COS(=O)(=O)O)[C@@H](O)[C@H](O)[C@H]5NS(=O)(=O)O)[C@H](O)[C@H]4O)[C@H](OS(=O)(=O)O)[C@H]3NS(=O)(=O)O)[C@H](O)[C@H]2OS(=O)(=O)O)[C@H](O)[C@H]1NS(=O)(=O)O [Fondaparinux sodium]
- Anticoagulant Factor Xa (factor Xa): 750 + 30 IU/mg
- Half-life [1]: 0.6 ± 0.1 H
